Results published in ChEMBL document CHEMBL1201862, “PubChem BioAssay data set” (2004).
Calls of active or inactive are those of the source.

Columns and labels:
[1] = Luminescence Cell-Based Dose Confirmation HTS to Identify Activators of 5'UTR Stem-Loop Driven Alpha-Synuclein mRNA Translation in H4 Neuroglioblastoma Cells. [Related pubchem assays: 1829 (Project Summary), 1814 (Primary HTS)]; format: functional
Streptococcus = test: Group A Streptococcus viability loss, dose response, counter-screen for streptokinase expression inhibitor project, luminescence, BacTiterGlo (AID 1915); format: functional, organism-based;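 note: potency for reduction of bacterial viability or growth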
[2] = Luminescence Cell-Based Dose Response to Identify Activators of 5'UTR Stem-Loop Driven Prion Protein mRNA Translation in H4-C Neuroglioblastoma Cells. [Related pubchem assays: 1829 (Project Summary), 1814 (Primary HTS)]; format: functional
H4 = test: Luminescence Cell-Based Dose Response HTS to Identify Activators of 5'UTR Stem-Loop Driven Prion Protein mRNA Translation in H4 Neuroglioblastoma Cells. [Related pubchem assays: 1829 (Project Summary), 1814 (Primary HTS)]; format: functional; conditions: Homo sapiens
[3] = tested on: Streptococcus sp. 'group A'; test: growth inhibition of control SK(-) GAS strain, dose response, counter-screen for streptokinase expression inhibitor project, luminescence, kanamycin, BacTiterGlo, confirmation (AID 1900); format: functional, organism-based
Streptokinase A = target: T1, Streptokinase A (Streptococcus pyogenes serotype M1, UniProt P10520); test: S. pyogenes streptokinase expression inhibitors, potency, dose response, plasminogen activation absorbance, OD405 (AID 1914); format: functional, Streptococcus pyogenes M1 GAS;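 note: secreted streptokinase activity via plasminogen activation per viability signal from cell pellet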
T1 sequence (P10520 whole entry): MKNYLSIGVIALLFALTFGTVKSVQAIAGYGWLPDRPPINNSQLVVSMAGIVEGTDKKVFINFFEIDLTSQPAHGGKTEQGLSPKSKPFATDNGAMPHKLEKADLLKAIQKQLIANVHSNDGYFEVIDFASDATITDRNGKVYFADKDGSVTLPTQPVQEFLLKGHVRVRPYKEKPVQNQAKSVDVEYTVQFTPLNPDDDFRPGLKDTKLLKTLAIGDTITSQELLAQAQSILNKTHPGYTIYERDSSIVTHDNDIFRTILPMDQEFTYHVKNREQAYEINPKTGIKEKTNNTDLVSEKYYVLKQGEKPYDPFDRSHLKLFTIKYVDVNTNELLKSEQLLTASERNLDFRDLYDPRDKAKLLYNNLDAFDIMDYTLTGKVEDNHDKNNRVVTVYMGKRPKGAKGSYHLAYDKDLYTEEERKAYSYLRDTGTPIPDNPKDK

[4] = Luminescence Cell-Based Dose Response to Identify Activators of Luciferase Translation or Activity in H4-C Neuroglioblastoma Cells. [Related pubchem assays: 1829 (Project Summary), 1814 (Primary HTS)]; format: functional
[5] = Luminescence Cell-Based Dose Confirmation to Identify Activators of 5'UTR Stem-Loop Driven Alpha-Synuclein mRNA Translation in H4 Neuroglioblastoma Cells. [Related pubchem assays: 1829 (Project Summary), 1814 (Primary HTS)]; format: functional
[6] = target: Glyceraldehyde-3-phosphate dehydrogenase (Homo sapiens, UniProt P04406)
Chain of Glyceraldehyde-3-phosphate dehydrogenase (P04406 whole entry): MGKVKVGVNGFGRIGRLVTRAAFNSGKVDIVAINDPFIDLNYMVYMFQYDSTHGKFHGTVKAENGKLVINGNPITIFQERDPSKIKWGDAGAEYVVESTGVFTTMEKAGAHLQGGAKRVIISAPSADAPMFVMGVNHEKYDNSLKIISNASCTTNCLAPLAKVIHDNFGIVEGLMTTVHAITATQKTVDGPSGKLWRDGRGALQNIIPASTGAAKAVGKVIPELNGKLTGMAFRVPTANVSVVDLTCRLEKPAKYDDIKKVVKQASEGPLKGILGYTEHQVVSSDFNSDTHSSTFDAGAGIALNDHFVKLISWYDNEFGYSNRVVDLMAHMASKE

Bcl-2-related protein A1 [7] = target: T2, Bcl-2-related protein A1 (Mus musculus, UniProt Q07440); test: Bfl-1 inhibitors blocking BH3 peptide binding, confirmation, biochemical, TR-FRET, mouse Bfl-1 (AID 621);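 note: TR-FRET binding of GST-Bfl-1 to FITC-labelled Bid peptide via terbium antibody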
T2 sequence (Q07440 whole entry): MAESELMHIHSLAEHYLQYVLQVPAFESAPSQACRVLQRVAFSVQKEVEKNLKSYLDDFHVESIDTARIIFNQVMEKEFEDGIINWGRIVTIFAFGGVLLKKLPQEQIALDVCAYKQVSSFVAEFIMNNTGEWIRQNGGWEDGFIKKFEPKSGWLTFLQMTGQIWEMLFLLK

Bcl-2-related protein A1 [8] = target: T2, Bcl-2-related protein A1; test: Bfl-1 binding inhibitors, SAR follow-up, biochemical, fluorescence polarization (AID 1070)
[9] = target: Voltage-gated inwardly rectifying potassium channel KCNH2 (Homo sapiens, UniProt Q12809); test: hERG protection from proarrhythmic block, potency, dose response, cell-based, thallium flux (AID 2121); format: ADME
Chain of Voltage-gated inwardly rectifying potassium channel KCNH2 (Q12809 whole entry): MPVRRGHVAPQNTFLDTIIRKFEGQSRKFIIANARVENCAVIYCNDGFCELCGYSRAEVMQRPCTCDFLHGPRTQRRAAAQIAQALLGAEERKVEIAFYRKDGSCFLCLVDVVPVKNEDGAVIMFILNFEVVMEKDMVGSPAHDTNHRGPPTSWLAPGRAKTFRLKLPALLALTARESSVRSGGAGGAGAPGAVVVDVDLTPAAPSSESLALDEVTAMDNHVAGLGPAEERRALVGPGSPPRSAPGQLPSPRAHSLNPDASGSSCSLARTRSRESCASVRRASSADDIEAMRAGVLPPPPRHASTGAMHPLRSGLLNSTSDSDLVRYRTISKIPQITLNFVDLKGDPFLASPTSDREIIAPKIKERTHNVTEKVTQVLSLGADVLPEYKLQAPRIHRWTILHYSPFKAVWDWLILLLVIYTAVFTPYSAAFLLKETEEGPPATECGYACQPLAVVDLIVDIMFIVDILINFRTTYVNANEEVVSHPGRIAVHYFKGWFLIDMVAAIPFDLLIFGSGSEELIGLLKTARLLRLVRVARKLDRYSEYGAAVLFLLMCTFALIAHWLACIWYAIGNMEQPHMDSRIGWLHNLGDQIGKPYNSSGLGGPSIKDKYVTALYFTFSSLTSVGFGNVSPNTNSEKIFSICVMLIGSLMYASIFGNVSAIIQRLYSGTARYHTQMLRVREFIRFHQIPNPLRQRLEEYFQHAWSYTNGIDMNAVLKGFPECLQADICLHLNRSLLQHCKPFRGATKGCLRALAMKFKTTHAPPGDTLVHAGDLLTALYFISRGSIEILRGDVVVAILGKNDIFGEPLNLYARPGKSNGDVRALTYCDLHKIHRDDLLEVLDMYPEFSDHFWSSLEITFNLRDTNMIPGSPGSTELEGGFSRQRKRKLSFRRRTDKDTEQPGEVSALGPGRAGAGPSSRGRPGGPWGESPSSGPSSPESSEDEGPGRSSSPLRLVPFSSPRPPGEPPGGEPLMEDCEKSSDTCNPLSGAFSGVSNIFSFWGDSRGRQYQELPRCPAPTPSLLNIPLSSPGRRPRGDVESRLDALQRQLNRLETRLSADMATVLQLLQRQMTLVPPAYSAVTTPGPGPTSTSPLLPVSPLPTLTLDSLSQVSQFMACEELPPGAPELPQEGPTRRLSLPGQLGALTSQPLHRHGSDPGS

14-3-3 protein gamma = 14-3-3 protein gamma (Homo sapiens, UniProt P61981); test: modulators of 14-3-3 gamma client binding – dose response (AID 711); format: functional
Chain of 14-3-3 protein gamma (P61981 whole entry): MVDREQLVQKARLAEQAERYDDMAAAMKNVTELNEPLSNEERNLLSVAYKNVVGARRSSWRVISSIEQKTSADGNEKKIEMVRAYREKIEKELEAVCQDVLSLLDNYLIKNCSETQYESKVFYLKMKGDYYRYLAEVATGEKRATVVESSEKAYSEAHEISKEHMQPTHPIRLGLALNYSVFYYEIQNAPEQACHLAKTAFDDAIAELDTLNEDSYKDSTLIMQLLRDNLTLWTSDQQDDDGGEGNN

[10] = target: T3, Replicative DNA helicase DnaB (Mycobacterium tuberculosis, UniProt P9WMR3); test: DnaB intein splicing inhibitors, dose response, biochemical, cell-free fluorescence (AID 449749); format: functional
T3 sequence (P9WMR3 whole entry): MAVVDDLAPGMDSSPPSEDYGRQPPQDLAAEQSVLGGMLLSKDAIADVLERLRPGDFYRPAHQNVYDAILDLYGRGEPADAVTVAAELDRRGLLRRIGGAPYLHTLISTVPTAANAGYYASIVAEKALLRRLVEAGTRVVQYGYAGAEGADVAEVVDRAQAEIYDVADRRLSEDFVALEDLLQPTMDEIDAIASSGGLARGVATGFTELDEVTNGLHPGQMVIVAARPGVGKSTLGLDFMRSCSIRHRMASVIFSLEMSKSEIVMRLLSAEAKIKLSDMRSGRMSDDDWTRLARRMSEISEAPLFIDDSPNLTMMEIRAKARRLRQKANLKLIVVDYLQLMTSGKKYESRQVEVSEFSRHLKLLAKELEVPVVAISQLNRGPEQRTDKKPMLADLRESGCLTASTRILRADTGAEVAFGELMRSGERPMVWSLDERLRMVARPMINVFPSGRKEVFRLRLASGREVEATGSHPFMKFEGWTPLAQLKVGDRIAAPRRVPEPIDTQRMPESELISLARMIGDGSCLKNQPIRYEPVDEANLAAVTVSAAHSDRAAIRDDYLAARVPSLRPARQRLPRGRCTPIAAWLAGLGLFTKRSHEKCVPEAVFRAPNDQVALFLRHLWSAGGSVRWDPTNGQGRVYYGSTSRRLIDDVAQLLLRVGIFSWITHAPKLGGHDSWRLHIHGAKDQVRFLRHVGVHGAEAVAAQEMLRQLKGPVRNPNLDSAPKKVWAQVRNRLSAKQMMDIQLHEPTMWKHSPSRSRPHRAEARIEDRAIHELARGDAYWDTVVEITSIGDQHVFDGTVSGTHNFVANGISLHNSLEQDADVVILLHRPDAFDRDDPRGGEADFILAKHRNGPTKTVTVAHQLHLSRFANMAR

Protein RecA = target: T4, Protein RecA (Mycobacterium tuberculosis, UniProt P9WHJ3); test: Fluorescence Cell-Free Homogeneous Dose Retest to Identify Inhibitors of RecA-Intein Splicing Activity. [Related pubchem assays (depositor defined):AID2097, AID2223, AID489010, AID492950]; format: functional
T4 sequence (P9WHJ3 whole entry): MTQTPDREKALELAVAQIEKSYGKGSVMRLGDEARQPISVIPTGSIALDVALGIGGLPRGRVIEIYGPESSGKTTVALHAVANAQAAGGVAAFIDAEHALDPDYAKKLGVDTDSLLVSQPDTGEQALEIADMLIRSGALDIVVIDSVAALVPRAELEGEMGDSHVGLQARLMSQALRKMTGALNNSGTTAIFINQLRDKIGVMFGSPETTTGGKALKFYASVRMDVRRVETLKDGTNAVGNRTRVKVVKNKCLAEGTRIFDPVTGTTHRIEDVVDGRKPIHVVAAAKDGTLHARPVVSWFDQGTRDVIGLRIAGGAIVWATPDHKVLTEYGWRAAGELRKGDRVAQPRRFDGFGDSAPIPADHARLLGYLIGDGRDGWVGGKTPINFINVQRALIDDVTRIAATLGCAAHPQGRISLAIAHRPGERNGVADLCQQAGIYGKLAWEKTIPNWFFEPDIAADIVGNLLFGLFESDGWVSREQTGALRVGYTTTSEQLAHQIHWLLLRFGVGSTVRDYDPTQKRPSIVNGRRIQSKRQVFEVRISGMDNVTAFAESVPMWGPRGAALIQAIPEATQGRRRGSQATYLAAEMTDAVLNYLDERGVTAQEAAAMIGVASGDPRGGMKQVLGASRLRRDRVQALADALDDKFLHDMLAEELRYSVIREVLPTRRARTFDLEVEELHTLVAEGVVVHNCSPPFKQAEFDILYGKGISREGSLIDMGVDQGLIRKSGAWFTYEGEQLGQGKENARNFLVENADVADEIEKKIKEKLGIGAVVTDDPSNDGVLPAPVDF

Danio rerio = test: In Vivo Angiogenesis Dose-Response Confirmation. [Related pubchem assays: 732 (Assay preceding this confirmatory assay.)]; format: functional, organism-based
Cytochrome P450 2C19 = Cytochrome P450 2C19 (Homo sapiens, UniProt P33261); test: Cytochrome panel assay with activity outcomes. Panel member name: p450-cyp2c19 Compounds with AC50 equal or less than 10 uM are considered active; format: functional; conditions: read-out: AC50
Chain of Cytochrome P450 2C19 (P33261 whole entry): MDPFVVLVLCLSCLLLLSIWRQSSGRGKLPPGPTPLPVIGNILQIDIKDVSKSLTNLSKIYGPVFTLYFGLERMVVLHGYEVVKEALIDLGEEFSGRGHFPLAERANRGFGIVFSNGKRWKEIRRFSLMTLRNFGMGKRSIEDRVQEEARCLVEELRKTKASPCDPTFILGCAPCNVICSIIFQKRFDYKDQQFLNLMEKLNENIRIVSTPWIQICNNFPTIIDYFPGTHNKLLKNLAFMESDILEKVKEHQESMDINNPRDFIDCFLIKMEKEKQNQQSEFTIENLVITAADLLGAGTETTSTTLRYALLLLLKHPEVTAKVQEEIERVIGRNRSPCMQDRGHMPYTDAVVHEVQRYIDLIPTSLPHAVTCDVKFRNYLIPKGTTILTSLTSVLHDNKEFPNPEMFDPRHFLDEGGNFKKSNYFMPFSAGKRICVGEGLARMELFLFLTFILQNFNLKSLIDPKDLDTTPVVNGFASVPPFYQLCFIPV

Cytochrome P450 2C9 [11] = target: T5, Cytochrome P450 2C9 (Homo sapiens, UniProt P11712); conditions: Potency
T5 sequence (P11712 whole entry): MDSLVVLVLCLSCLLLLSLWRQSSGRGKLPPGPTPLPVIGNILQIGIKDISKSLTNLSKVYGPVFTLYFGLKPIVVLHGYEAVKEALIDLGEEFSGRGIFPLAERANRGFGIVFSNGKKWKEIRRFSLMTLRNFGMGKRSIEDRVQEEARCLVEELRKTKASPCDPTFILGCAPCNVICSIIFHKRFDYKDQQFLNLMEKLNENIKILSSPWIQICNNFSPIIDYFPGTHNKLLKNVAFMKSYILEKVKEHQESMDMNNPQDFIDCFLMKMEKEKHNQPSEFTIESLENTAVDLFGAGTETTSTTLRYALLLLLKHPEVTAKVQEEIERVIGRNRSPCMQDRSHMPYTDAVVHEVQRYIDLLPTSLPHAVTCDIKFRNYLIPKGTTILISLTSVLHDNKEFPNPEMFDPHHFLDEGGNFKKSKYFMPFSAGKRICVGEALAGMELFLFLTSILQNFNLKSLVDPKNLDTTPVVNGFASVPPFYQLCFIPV

Cytochrome P450 2C9 [12] = target: T5, Cytochrome P450 2C9
[13] = target: Sphingosine 1-phosphate receptor 2 (Homo sapiens, UniProt O95136); test: Dose Response Cell Based Assay for Agonists of the S1P2 Receptor of Purchased Analogues. [Related pubchem assays: 729, 843, 854, 736 ]; format: functional
Chain of Sphingosine 1-phosphate receptor 2 (O95136 whole entry): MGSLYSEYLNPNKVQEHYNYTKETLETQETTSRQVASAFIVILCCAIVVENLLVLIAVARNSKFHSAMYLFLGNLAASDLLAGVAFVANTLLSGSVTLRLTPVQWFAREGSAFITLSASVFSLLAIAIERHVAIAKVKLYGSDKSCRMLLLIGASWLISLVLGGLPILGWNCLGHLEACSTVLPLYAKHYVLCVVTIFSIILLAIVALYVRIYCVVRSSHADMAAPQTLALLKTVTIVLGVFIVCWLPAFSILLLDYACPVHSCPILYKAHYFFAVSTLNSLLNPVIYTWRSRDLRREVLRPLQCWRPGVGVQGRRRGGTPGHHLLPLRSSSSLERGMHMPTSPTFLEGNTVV

[14] = target: Potassium voltage-gated channel subfamily KQT member 2 (Rattus norvegicus, UniProt O88943, W236L); test: KCNQ2 channel potentiators, dose response, mechanism study for KCNQ2 potentiator project, cell-based, automated electrophysiology (AID 2603); format: functional
Chain of Potassium voltage-gated channel subfamily KQT member 2 (O88943 whole entry W236L): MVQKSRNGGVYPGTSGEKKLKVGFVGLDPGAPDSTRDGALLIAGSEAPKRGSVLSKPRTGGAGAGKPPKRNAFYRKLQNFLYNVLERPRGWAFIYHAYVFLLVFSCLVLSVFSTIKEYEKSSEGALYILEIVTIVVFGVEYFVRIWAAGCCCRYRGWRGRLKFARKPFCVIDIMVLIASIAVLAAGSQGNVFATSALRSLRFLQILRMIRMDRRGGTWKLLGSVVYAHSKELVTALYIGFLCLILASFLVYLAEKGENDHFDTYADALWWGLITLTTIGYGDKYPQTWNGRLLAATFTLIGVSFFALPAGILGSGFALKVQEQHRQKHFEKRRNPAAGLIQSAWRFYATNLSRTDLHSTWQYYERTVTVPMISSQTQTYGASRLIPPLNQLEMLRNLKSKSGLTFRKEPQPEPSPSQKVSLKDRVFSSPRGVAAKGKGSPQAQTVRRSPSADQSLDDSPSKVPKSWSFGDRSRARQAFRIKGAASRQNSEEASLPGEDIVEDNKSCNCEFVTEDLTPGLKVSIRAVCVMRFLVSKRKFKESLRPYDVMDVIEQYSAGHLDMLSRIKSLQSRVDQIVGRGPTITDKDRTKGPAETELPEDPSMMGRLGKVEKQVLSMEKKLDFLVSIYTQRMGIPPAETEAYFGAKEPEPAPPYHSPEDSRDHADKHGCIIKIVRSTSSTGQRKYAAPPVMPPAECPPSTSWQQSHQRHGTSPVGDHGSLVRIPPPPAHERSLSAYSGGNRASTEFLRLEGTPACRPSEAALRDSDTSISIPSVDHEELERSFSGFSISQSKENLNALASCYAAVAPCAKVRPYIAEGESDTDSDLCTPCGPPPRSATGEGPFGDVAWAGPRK

Vero [15] = test: cells; format: functional; conditions: Chlorocebus sabaeus
Vero [16] = test: cells; format: functional, cell-based; conditions: Chlorocebus sabaeus
[17] = inhibitors of intracellular T. cruzi replication, confirmation, NIH3T3 host cells, beta-gal luminescence (AID 2044); format: functional, cell-based;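 note: intracellular parasites grown in NIH/3T3 mouse fibroblasts as host cells; luminescent beta-galactosidase reporter signal from transgenic T. cruzi replicating inside host cells; inhibitors lower the luminescence signal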
Vero [18] = test: host cell cytotoxicity of antiviral hits, dose response, cytotoxicity control for West Nile virus antiviral project, secondary assay (AID 1650); format: functional; conditions: Chlorocebus sabaeus
[19] = inhibitors of SNCA 5'UTR-driven reporter translation, confirmation, H4 neuroglioma cells, luminescence (AID 1988); format: functional, cell-based
Cytochrome P450 1A2 = target: T6, Cytochrome P450 1A2 (Homo sapiens, UniProt P05177);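 note: PubChem cytochrome P450 panel assay, CYP1A2 panel member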
T6 sequence (P05177 whole entry): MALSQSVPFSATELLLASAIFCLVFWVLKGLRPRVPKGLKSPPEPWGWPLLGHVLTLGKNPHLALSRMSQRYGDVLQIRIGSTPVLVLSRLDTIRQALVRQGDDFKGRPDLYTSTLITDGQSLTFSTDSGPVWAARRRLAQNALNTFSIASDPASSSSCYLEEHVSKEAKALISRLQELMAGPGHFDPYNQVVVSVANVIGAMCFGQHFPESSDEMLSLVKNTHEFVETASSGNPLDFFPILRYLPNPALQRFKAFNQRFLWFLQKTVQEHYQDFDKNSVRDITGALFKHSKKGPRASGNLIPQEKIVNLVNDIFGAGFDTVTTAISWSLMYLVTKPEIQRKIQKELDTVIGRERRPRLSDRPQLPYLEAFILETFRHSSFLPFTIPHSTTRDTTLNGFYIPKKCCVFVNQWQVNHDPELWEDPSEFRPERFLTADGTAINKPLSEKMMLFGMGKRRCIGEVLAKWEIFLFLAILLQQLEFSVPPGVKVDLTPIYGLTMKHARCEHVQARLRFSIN

[20] = cytotoxicity toward NIH3T3 fibroblasts, dose response, counter-screen, cell-based, ATP luminescence, mouse fibroblasts (AID 2010); format: functional;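 note: cells exposed to compound for about 90 hours before reading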
[21] = inhibitors of firefly luciferase expression or activity, dose response, H4 neuroglioma cells, luminescence (AID 1990); format: functional, cell-based
[22] = Luminescence Cell-Based Dose Response HTS to Identify Inhibitors of 5'UTR Stem-Loop Driven Prion Protein mRNA Translation in H4 Neuroglioblastoma Cells. [Related pubchem assays: 1827 (Project Summary), 1813 (Primary HTS)]; format: functional
[23] = Luminescence Cell-Based Dose Confirmation HTS to Identify Inhibitors of Polyadenylation.; format: functional

Cc1ccc(Nc2nc3ccccc3[nH]2)nc1
EC50 [1]: < 100 nM (active)
EC50 (Streptococcus): > 150 µM (not active)
EC50 [2]: 279 nM (active)
EC50 (H4): 43.1 µM (active)
EC50 [3]: 5.49 µM (active)
EC50 (Streptokinase A): > 150 µM (not active)
EC50 [4]: 368 nM (active)
EC50 [5]: 601 nM (active)

CS(=O)(=O)c1nc(-c2ccc3ccccc3c2)cc(C(F)(F)F)n1
IC50 [6]: > 100 µM (not active)
IC50 (Bcl-2-related protein A1 [7]): > 100 µM (not active)
IC50 (Bcl-2-related protein A1 [8]): > 100 µM (not active)

C/C(Nc1cccc(F)c1)=C(/C#N)C(N)=O
EC50 [9]: 880 nM (active)

NC(=O)c1c(-c2cccs2)csc1N
IC50 (14-3-3 protein gamma): > 50 µM (not active)
AC50 [10]: > 380 µM (inactive)
EC50 (Protein RecA): 1.02 µM (active)

O=Nc1c(-c2c(O)[nH]c3ccccc23)[nH]c2ccccc12 [INDIRUBIN-3-MONOXIME]
IC50 (Danio rerio): 310 nM (active)
AC50 (Cytochrome P450 2C19): 39.8 µM (inconclusive)
AC50 (Cytochrome P450 2C9 [11]): 12.6 µM (inconclusive)
AC50 (Cytochrome P450 2C9 [12]): 39.8 µM (inconclusive)

Cc1cc(C(=O)CN(C)CC(=O)N2CCOCC2)c(C)n1Cc1ccccc1
EC50 [13]: > 30 µM (not active)

O=C(Nc1ccc(Oc2ccc3ccccc3c2)cc1)c1ccco1
EC50 [14]: 12 µM (active)

COc1c(C)c2c(c(O)c1C/C=C(\C)CCC(=O)O)C(=O)OC2 [MYCOPHENOLIC ACID]
CC50 (Vero [15]): 9.68 µM (active)
IC50 (Vero [16]): < 50 nM (active)
EC50 [17]: 1.64 µM (active)
CC50 (Vero [18]): 4.61 µM (active)
EC50 [19]: 8.2 µM (active)
AC50 (Cytochrome P450 1A2): 15.8 µM (inconclusive)
EC50 [20]: 10.9 µM (active)
EC50 [21]: 10.2 µM (active)
EC50 [22]: 116 nM (active)

CC(C)CC1Nc2ncnc(N3CCN(c4ccccc4)CC3)c2N(Cc2ccccc2)C1=O (stereo unspecified)
EC50 [23]: > 120 µM (not active)
